# Data reported in patent publication US10729664B2, “Permanently charged sodium and calcium channel blockers as anti-inflammatory agents” (Children's Medical Center Corporation, priority 2009, dated 2020).
# “Also recorded” adds a separate entry of the source.
# Tests used:
# [1] = test system: voltage-dependent calcium channels; assay: Whole-cell recording of currents through voltage-activated calcium channels in a dissociated dorsal root ganglion neuron; format: cell-based, rat
# Protocol: The traces show currents through voltage-activated calcium channels in a dissociated rat dorsal root ganglion neuron, recorded in whole-cell mode. Current was carried by 2 mM Ba^2+ on a background of 155 mM N-methyl-D-glucamine (to eliminate Na current), with an internal CsCl-based solution. Calcium channels were opened by a voltage step from −80 mV to −20 mV. When channels are opened, inward-going current is carried by Ba^2+ ions flowing into the cell.
# rat hindpaw = assay: Edema elicited by injection of complete Freund's adjuvant (CFA) in the rat hindpaw, total hindpaw volume by plethysmography; format: in vivo; settings: intravenous QX-314 0.4 mg/kg
# Protocol: FIG. 1 is a graph showing the effect of intravenous QX-314 (0.4 mg/kg) on the edema elicited by injection of complete Freund's adjuvant (CFA) in the rat hindpaw determined by measuring the total volume of the hindpaw by plethysmography. The degree of swelling produced by injection of CFA is reduced by administration of QX-314 reflecting reduction in neurogenic edema resulting from the blockade of nociceptors by QX314.
smiles,measurement,setting,value
"COc1cc(CNC(=O)CCCC/C=C/C(C)C)ccc1O [capsaicin, reference compound]","effect on calcium channel currents, capsaicin alone","[1]; 1 μM capsaicin alone, before and 3 minutes after exposure, step from −80 mV to −20 mV, 2 mM Ba2+","weak, transient effects"
CC[N+](CC)(CC)CC(=O)Nc1c(C)cccc1C [QX-314],degree of swelling produced by injection of CFA (total volume of the hindpaw),rat hindpaw; CFA-injected hindpaw,reduced
same,effect on hindpaw volume of QX-314 by itself,"rat hindpaw; by itself (no CFA), compared with saline",no effect different from administration of saline
COc1ccc(CC[N+](C)(C)CCCC(C#N)(c2ccc(OC)c(OC)c2)C(C)C)cc1OC (centres unmarked) [N-methyl-verapamil],"effect on calcium channel currents, N-methyl-verapamil alone","[1]; 300 μM N-methyl-verapamil alone, before and 3 minutes after exposure, step from −80 mV to −20 mV, 2 mM Ba2+","weak, transient effects"
same,"inhibition of voltage-dependent calcium channel current, N-methyl-verapamil applied in the presence of capsaicin","[1]; 300 μM N-methyl-verapamil in the presence of 1 μM capsaicin to open TRPV1 channels, 3 minutes after exposure and after washout",long-lasting inhibition; also recorded: inhibition of calcium channel currents that persists after washout; also recorded: inhibition of voltage-dependent calcium channel current
